From US20110224208A1, “NOVEL INHIBITORS OF FLAVIVIRUS REPLICATION” (KATHOLIEKE UNIVERSITEIT LEUVEN, K.U. LEUVEN R&D, priority 2008, published 2011)
In brackets after ≈: the same amount, converted by molar mass. Like-named read-outs stand apart in the source and are kept apart here.

Tests used:
[1] = Proliferation of exponentially growing Huh-5-2 cells (MTS method); conditions: human
Experimental: Cells were seeded at a density of 7000 cells per well in 96 well View Plate™ (Packard) in medium containing the same components as described above, except for G418. Cells were allowed to adhere and proliferate for 24 hr. At that time, culture medium was removed and serial dilutions of the test compounds were added in culture medium lacking G418. Interferon alfa 2a (500 IU) was included as a positive control. Plates were further incubated at 37° C. and 5% CO2 for 72 hours. Replication of the HCV replicon in Huh-5 cells results in luciferase activity in the cells. Luciferase activity is measured by adding 50 μl of 1×Glo-lysis buffer (Promega) for 15 minutes followed by 50 ul of the Steady-Glo Luciferase assay reagent (Promega). Luciferase activity is measured with a luminometer and the signal in each individual well is expressed as a percentage of the untreated cultures. […] Instead the density of the culture is measured by means of the MTS method (Promega).

[2] = tested on: HCV replicon I389luc-ubi-neo/NS3-3'/5.1; assay: Anti-HCV replicon assay (luciferase activity) in Huh-5-2 cells; type: cell-based, Hepatitis C virus; conditions: Hepatitis C virus, concentration required to inhibit luciferase activity in the replicon system by 50%
Outline: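 Huh-5-2 cells carrying the luciferase HCV replicon, seeded 24 h, then exposed to serial compound dilutions without G418 for 72 h at 37° C, 5% CO2. Replication read as luciferase luminescence, expressed as percentage of untreated cultures; culture density measured in parallel by MTS.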

[3] = CC50, concentration required to inhibit the proliferation of exponentially growing Huh-5-2 cells by 50%, Table 2

| SMILES | CC50 at 72 h [1, 3] | IC50 ([2]; Huh-5-2, 72 h) | CC50 at 72 h ([1]; Huh-5-2 cells (Huh-5 cell line with persistent HCV replicon)) | IC50 ([2]; 72 hours, read-out: IC50) |
| --- | --- | --- | --- | --- |
| COCCN1C(=O)c2c(ccc(C)c2F)C(C(=O)Nc2cccc(OC)c2)C1c1cccs1 (centres unmarked) [C93, 8-fluoro-2-(2-methoxyethyl)-N-(3-methoxyphenyl)-7-methyl-1-oxo-3-(thiophen-2-yl)-1,2,3,4-tetrahydroisoquinoline-4-carboxamide] | 32.9 µg/mL (≈ 70.2 µM) | 0.17 µg/mL (≈ 0.363 µM) | – | – |
| COCCN1C(=O)c2ccccc2C(C(=O)Nc2cccc(OC)c2)C1c1ccc(F)cc1 (centres unmarked) [C9, 3-(4-Fluorophenyl)-2-(2-methoxyethyl)-N-(3-methoxyphenyl)-1-oxo-1,2,3,4-tetrahydroisoquinoline-4-carboxamide] | 50.7 µg/mL (≈ 113 µM) | 13.4 µg/mL (≈ 29.8 µM) | – | – |
| COCCN1C(=O)c2ccccc2C(C(=O)Nc2cccc(CO)c2)C1c1cccs1 (centres unmarked) [C166, N-(3-(hydroxymethyl)phenyl)-2-(2-methoxyethyl)-1-oxo-3-(thiophen-2-yl)-1,2,3,4-tetrahydroisoquinoline-4-carboxamide] | 64.3 µg/mL (≈ 147 µM) | 0.38 µg/mL (≈ 0.87 µM) | – | – |
| COCCN1C(=O)c2ccccc2C(C(=O)Nc2ccc(C(F)(F)F)cc2)C1c1cccs1 (centres unmarked) [C19, 2-(2-Methoxyethyl)-1-oxo-3-(thiophen-2-yl)-N-(4-(trifluoromethyl)phenyl)-1,2,3,4-tetrahydroisoquinoline-4-carboxamide] | 12.1 µg/mL (≈ 25.5 µM) | 5.2 µg/mL (≈ 11 µM) | – | – |
| COCCN1C(=O)c2ccccc2C(C(=O)Nc2cccc(NC(C)=O)c2)C1c1cccs1 (centres unmarked) [C108, N-(3-acetamidophenyl)-2-(2-methoxyethyl)-1-oxo-3-(thiophen-2-yl)-1,2,3,4-tetrahydroisoquinoline-4-carboxamide] | 77.3 µg/mL (≈ 167 µM) | 3.71 µg/mL (≈ 8 µM) | – | – |
| CCOCCN1C(=O)c2ccccc2C(C(=O)Nc2cccc(OC)c2)C1c1cccs1 (centres unmarked) [C65, 2-(2-Ethoxyethyl)-N-(3-methoxyphenyl)-1-oxo-3-(thiophen-2-yl)-1,2,3,4-tetrahydroisoquinoline-4-carboxamide] | 90.2 µg/mL (≈ 200 µM) | 1.76 µg/mL (≈ 3.91 µM) | – | – |
| CCN1C(=O)c2ccccc2C(C(=O)Nc2cccc(OC)c2)C1c1cccs1 (centres unmarked) [C5, 2-Ethyl-N-(3-methoxyphenyl)-1-oxo-3-(thiophen-2-yl)-1,2,3,4-tetrahydroisoquinoline-4-carboxamide] | 33.4 µg/mL (≈ 82.2 µM) | 3.6 µg/mL (≈ 8.86 µM) | – | – |
| COCCN1C(=O)c2ccccc2C(C(=O)Nc2ccc3c(c2)COC3)C1c1cccs1 (centres unmarked) [C190, N-(1,3-dihydroisobenzofuran-5-yl)-2-(2-methoxyethyl)-1-oxo-3-(thiophen-2-yl)-1,2,3,4-tetrahydroisoquinoline-4-carboxamide] | 75.9 µg/mL (≈ 169 µM) | 0.14 µg/mL (≈ 0.312 µM) | – | – |
| COCCN1C(=O)c2ccccc2C(C(=O)Nc2cccc(OC)c2)C1c1ccncc1 (centres unmarked) [C30, 2-(2-Methoxyethyl)-N-(3-methoxyphenyl)-1-oxo-3-(pyridin-4-yl)-1,2,3,4-tetrahydroisoquinoline-4-carboxamide] | 70.3 µg/mL (≈ 163 µM) | 36.7 µg/mL (≈ 85 µM) | – | – |
| COCCN1C(=O)c2ccccc2C(C(=O)Nc2cc(OC)cc(OC)c2)C1c1cccs1 (centres unmarked) [C130, N-(3,5-dimethoxyphenyl)-2-(2-methoxyethyl)-1-oxo-3-(thiophen-2-yl)-1,2,3,4-tetrahydroisoquinoline-4-carboxamide] | 91.8 µg/mL (≈ 197 µM) | 0.8 µg/mL (≈ 1.71 µM) | – | – |
| COCCN1C(=O)c2cc(OC)ccc2C(C(=O)Nc2cccc(OC)c2)C1c1cccs1 (centres unmarked) [C50, 7-Methoxy-2-(2-methoxyethyl)-N-(3-methoxyphenyl)-1-oxo-3-(thiophen-2-yl)-1,2,3,4-tetrahydroisoquinoline-4-carboxamide] | 76.4 µg/mL (≈ 164 µM) | 0.7 µg/mL (≈ 1.5 µM) | – | – |
| COCCN1C(=O)c2ccccc2C(C(=O)Nc2cccc(C(F)(F)F)c2)C1c1cccs1 (centres unmarked) [C110, 2-(2-methoxyethyl)-1-oxo-3-(thiophen-2-yl)-N-(3-(trifluoromethyl)phenyl)-1,2,3,4-tetrahydroisoquinoline-4 carboxamide] | 79.3 µg/mL (≈ 167 µM) | 1.45 µg/mL (≈ 3.06 µM) | – | – |
| COCCN1C(=O)c2ccccc2C(C(=O)n2c(=O)oc3ccc(N)cc32)C1c1cccs1 (centres unmarked) [C207, 5-amino-3-(−2-(2-methoxyethyl)-1-oxo-3-(thiophen-2-yl)-1,2,3,4-tetrahydroisoquinoline-4-carbonyl)benzo[d]oxazol-2(3H)-one] | 72.3 µg/mL (≈ 156 µM) | 27.4 µg/mL (≈ 59.2 µM) | – | – |
| COCCN1C(=O)c2ccccc2C(C(=O)Nc2cc(C(C)(C)C)[nH]n2)C1c1cccs1 (centres unmarked) [C185, N-(5-tert-butyl-1H-pyrazol-3-yl)-2-(2-methoxyethyl)-1-oxo-3-(thiophen-2-yl)-1,2,3,4-tetrahydroisoquinoline-4-carboxamide] | 19 µg/mL (≈ 42 µM) | 10.4 µg/mL (≈ 23 µM) | – | – |
| COCCN1C(=O)c2ccccc2C(C(=O)Nc2nc3ccc(Cl)cc3s2)C1c1cccs1 (centres unmarked) [C202, N-(6-chlorobenzo[d]thiazol-2-yl)-2-(2-methoxyethyl)-1-oxo-3-(thiophen-2-yl)-1,2,3,4-tetrahydroisoquinoline-4-carboxamide] | 7.89 µg/mL (≈ 15.8 µM) | 0.17 µg/mL (≈ 0.341 µM) | – | – |
| COCCN1C(=O)c2ccccc2C(C(=O)Nc2cccc(OC)c2)C1CC1CCOCC1 (centres unmarked) [C97, 2-(2-methoxyethyl)-N-(3-methoxyphenyl)-1-oxo-3-((tetrahydro-2H-pyran-4-yl)methyl)-1,2,3,4-tetrahydroisoquinoline-4-carboxamide] | 80 µg/mL (≈ 177 µM) | 51.6 µg/mL (≈ 114 µM) | – | – |
| COCCN1C(=O)c2ccccc2C(C(=O)Nc2cc(-c3ccccc3)nn2C)C1c1cccs1 (centres unmarked) [C208, 2-(2-methoxyethyl)-N-(1-methyl-3-phenyl-1H-pyrazol-5-yl)-1-oxo-3-(thiophen-2-yl)-1,2,3,4-tetrahydroisoquinoline-4-carboxamide] | 7.94 µg/mL (≈ 16.3 µM) | 0.39 µg/mL (≈ 0.801 µM) | – | – |
| COCCN1C(=O)c2ccccc2C(C(=O)Nc2cccc(OC)c2)C1c1cc(C)nn1C (centres unmarked) [C100, 3-(1,3-dimethyl-1H-pyrazol-5-yl)-2-(2-methoxyethyl)-N-(3-methoxyphenyl)-1-oxo-1,2,3,4-tetrahydroisoquinoline-4-carboxamide] | 86.7 µg/mL (≈ 193 µM) | 56.8 µg/mL (≈ 127 µM) | – | – |
| COCCN1C(=O)c2ccccc2C(C(=O)Nc2cccc(-n3cncn3)c2)C1c1cccs1 (centres unmarked) [C200, N-(3-(1H-1,2,4-triazol-1-yl)phenyl)-2-(2-methoxyethyl)-1-oxo-3-(thiophen-2-yl)-1,2,3,4-tetrahydroisoquinoline-4-carboxamide] | 59.4 µg/mL (≈ 125 µM) | 0.32 µg/mL (≈ 0.676 µM) | – | – |
| COCCN1C(=O)c2ccccc2C(C(=O)Nc2ccc(N3CCCCC3)cc2)C1c1cccs1 (centres unmarked) [C107, 2-(2-methoxyethyl)-1-oxo-N-(4-(piperidin-1-yl)phenyl)-3-(thiophen-2-yl)-1,2,3,4-tetrahydroisoquinoline-4-carboxamide] | 23.5 µg/mL (≈ 47.9 µM) | 0.12 µg/mL (≈ 0.245 µM) | – | – |
| COCCN1C(=O)c2cccc(C)c2C(C(=O)Nc2cccc(OC)c2)C1c1cccs1 (centres unmarked) [C39, 2-(2-Methoxyethyl)-N-(3-methoxyphenyl)-5-methyl-1-oxo-3-(thiophen-2-yl)-1,2,3,4-tetrahydroisoquinoline-4-carboxamide] | 80 µg/mL (≈ 178 µM) | 1.3 µg/mL (≈ 2.89 µM) | – | – |
| COCCN1C(=O)c2ccccc2C(C(=O)Nc2nc3ccc(OC)cc3s2)C1c1ccc(F)cc1 (centres unmarked) [C273, 3-(4-fluorophenyl)-N-(6-methoxybenzo[d]thiazol-2-yl)-2-(2-methoxyethyl)-1-oxo-1,2,3,4-tetrahydroisoquinoline-4-carboxamide] | – | – | 14.9 µg/mL (≈ 29.5 µM) | 1.4 µg/mL (≈ 2.77 µM) |
| CCc1nnc(NC(=O)C2c3ccccc3C(=O)N(CCOC)C2c2cccs2)o1 (centres unmarked) [C125, N-(5-ethyl-1,3,4-oxadiazol-2-yl)-2-(2-methoxyethyl)-1-oxo-3-(thiophen-2-yl)-1,2,3,4-tetrahydroisoquinoline-4-carboxamide] | 53.6 µg/mL (≈ 126 µM) | 7.3 µg/mL (≈ 17.1 µM) | – | – |
| COCCN1C(=O)c2ccccc2C(C(=O)Nc2ccc(Cl)c(OC)c2)C1c1cccs1 (centres unmarked) [C111, N-(4-chloro-3-methoxyphenyl)-2-(2-methoxyethyl)-1-oxo-3-(thiophen-2-yl)-1,2,3,4-tetrahydroisoquinoline-4-carboxamide] | 86.7 µg/mL (≈ 184 µM) | 0.17 µg/mL (≈ 0.361 µM) | – | – |
| COCCN1C(=O)c2ccccc2C(C(=O)Nc2nc(C(C)(C)C)cs2)C1c1cccs1 (centres unmarked) [C177, N-(4-tert-butylthiazol-2-yl)-2-(2-methoxyethyl)-1-oxo-3-(thiophen-2-yl)-1,2,3,4-tetrahydroisoquinoline-4-carboxamide] | 3.16 µg/mL (≈ 6.73 µM) | 0.5 µg/mL (≈ 1.06 µM) | – | – |
| COCCN1C(=O)c2ccccc2C(C(=O)Nc2cnccn2)C1c1cccs1 (centres unmarked) [C163, 2-(2-methoxyethyl)-1-oxo-N-(pyrazin-2-yl)-3-(thiophen-2-yl)-1,2,3,4-tetrahydroisoquinoline-4-carboxamide] | 81 µg/mL (≈ 198 µM) | 5.23 µg/mL (≈ 12.8 µM) | – | – |
| COCCN1C(=O)c2ccccc2C(C(=O)Nc2cc(C(=O)OC)n(C)c2)C1c1cccs1 (centres unmarked) [C209, methyl 4-(2-(2-methoxyethyl)-1-oxo-3-(thiophen-2-yl)-1,2,3,4-tetrahydroisoquinoline-4-carboxamido)-1-methyl-1H-pyrrole-2-carboxylate] | 57.8 µg/mL (≈ 124 µM) | 0.11 µg/mL (≈ 0.235 µM) | – | – |
| COCCN1C(=O)c2ccccc2C(C(=O)Nc2ccc3c(c2)CC(=O)N3C)C1c1cccs1 (centres unmarked) [C206, 2-(2-methoxyethyl)-N-(1-methyl-2-oxoindolin-5-yl)-1-oxo-3-(thiophen-2-yl)-1,2,3,4-tetrahydroisoquinoline-4-carboxamide] | 52.3 µg/mL (≈ 110 µM) | 3.72 µg/mL (≈ 7.82 µM) | – | – |
